Molecules are shown by their SMILES.

In data set [1] the test system is MRSA USA 300 ATCC BAA-1717. Nature of the data set: Mouse (LD0-20) bacteremia model, bacterial counts in organs. The note with it: BALB/c mice, IV MRSA USA 300 ATCC BAA-1717; IM032 0.3-30 mg/kg PO BID 7 days; Day 7. It counts as in vivo, Staphylococcus aureus. The protocol: A bacterial strain, USA 300 MRSA BAA-1717, was used to infect BALB/c (female). Test animals were intravenously (IV) inoculated with MRSA ATCC BAA-1717 at a target density of 1×10^6 CFU/mouse. Test substance, IM032 at 0, 0.3, 1, 3, 10, and 30 mg/kg, was administered orally (PO) twice daily (BID) for a total of 7 dosing days.
The reference agents, vancomycin at 3 mg/kg was administered IV once (QD) at 1 h after infection for 7 consecutive days.
With reference to FIG. 9, the animals were IV inoculated with MRSA USA 300 ATCC BAA-1717 at 1.02×10^6 CFU/mouse. IM032 at 0.3, 1, 3, 10, and 30 mg/kg were orally (PO) administrated twice daily (BID) at 1 and 7 h after the infection on Day 1, and then twice daily at 6-hour intervals in the next 6 days for a total of 7 days of dosing. Vancomycin, at 3 mg/kg, was administered intravenously (IV) at 1 h after the infection on Day 1 and then once a day in the next 6 days for a total of 7 days of dosing. All the test animals in the IM032 treatment, reference vancomycin and the vehicle control groups were sacrificed at 168 hours (Day 7) after the infection. […] Statistical significance compared to the respective vehicle control was determined by unpaired student t-tests. […]
With reference to FIG. 10, bacterial density in lung and liver were determined. […] Statistical significance compared to the respective vehicle control was determined by unpaired student t-tests. […]

For data set [2], the system named is methicillin-resistant S. aureus (MRSA). Nature of the data set: Mouse MRSA skin infection model, wound closure. The format is in vivo, Staphylococcus aureus. The source says: Visual wound healing/closure in different treatment groups of mice can be observed in FIG. 11B.
The nature of data set [3]: Solubility in solutions simulating gastric juice and intestinal fluid. It counts as physicochemical. The source says:
The following table (Table 4) illustrates the solubility of two different compounds, NP16-XL-016 (hereinafter as “IM032”) and NP16-XL-061 (hereinafter as “IM032-C1”), in two solutions with different pH values simulating the pH of gastric juice and human intestinal fluid using HCl and phosphate buffer respectively.

For data set [4], the system named is 10 different Staphylococcus aureus (S. aureus) strains. Kind of data set: Inhibition of staphyloxanthin production by IM032 in different S. aureus strains (overall). It counts as cell-based. The note with it: any concentration of IM032 (up to 4,000 nM). The protocol: Compound IM032 was evaluated for its in vitro efficacy to inhibit staphyloxanthin production in 10 different Staphylococcus aureus (S. aureus) strains, SH1000, HG003, ATCC29213, ATCC700698, COL, JE2, LAC, USA300-3, Newman and ST239III.
The test item was dissolved at 44.9 mg/mL in DMSO at 37° C., aliquoted into several tubes, and stored at −20° C. until use. On the day of testing, a stock solution was serially diluted to testing concentrations with DMSO. All solutions were vortexed and mixed with a pipette to achieve homogeneity immediately before dilution. A correction factor for purity was not applied to the test item preparations.
Each test item solution (6 μL) was combined with 0.6 mL of S. aureus culture in brain heart infusion broth (CFU per well=1×10^7). 12-wells repeats were performed for each concentration in 96-well 2-mL plates. The plates were then incubated in a shaker at 37° C., 250 rpm for 24 hours. […] After centrifugation, 100 μL of supernatant was transferred to a 96-well cell culture plate and OD450 was measured. The relative pigment production at each tested concentration was calculated as follows: […]
The IC50 for each test was determined based on the calculated inhibition ratio from above with Prism 6.0 by employing a non-linear regression (four parameters) fitting method with assigned bottom and top at 0.05 and 0.95 respectively. […]

Data set [5] concerns S. aureus COL. Nature of the data set: Bactericidal activity of human polymorphonuclear leukocytes (neutrophil killing). It counts as cell-based, Staphylococcus aureus. As to conditions: NP16-treated S. aureus COL. As to the method: The killing of S. aureus by human polymorphonuclear leukocytes (PMNs) was determined as previously described, with some modifications. Briefly, PMNs (10^6) were mixed with ˜10^7 opsonized S. aureus bacteria MOI=10 in 24-well tissue culture plates. After centrifuged at 380 g for 8 min, plates were incubated at 37° C. for up to 1.5 h. PMNs were lysed with saponin (20 min on ice) and plated on BHIA plates. The percent survival was calculated by normalized with time zero. Statistics were performed with the Student's t-test (GraphPad Prism).

Data set [6] deals with non-pigmented strain RN6390. Nature of the data set: Hydrogen peroxide susceptibility assay, non-pigmented strain. The format is cell-based, Staphylococcus aureus. As to the method:
(§1) S. aureus was grown in BHI with or without NP16 (40 μM). After 2 days, bacteria were washed twice in PBS, diluted to a concentration of 1×10^7 CFUs per 100 μl reaction mixture in a 96-well plate. Hydrogen peroxide (H2O2) in PBS was added to a 440 mM final concentration, and the plate was incubated for 1 hr at 37° C. with shaking. The reaction was stopped by the addition of 1,000 U/ml of exogenous catalase (Sigma-Aldrich, St. Louis, MO), and bacterial viability was assessed by plating dilutions on BHI agar plates.

The subject of data set [7] is S. aureus COL. Nature of the data set: Murine intraperitoneal infection model, liver and spleen CFU. The format is in vivo, Staphylococcus aureus. As to conditions: BALB/c mice, i.p. S. aureus COL; 0.35 mg twice per day (days -1, 0, 1 and 2); 72 hours; P<0.01. As to the method: (§2) For other S. aureus sub-type, eight-to ten-week-old female BALB/c mice were injected intraperitoneally (i.p) with 4×10^8 CFUs of early stationary phase S. aureus COL. After 3 d, animals were euthanized, the liver and spleen were isolated, homogenized in PBS, and plated on to obtain viable counts. For the treatment study, mice were randomized into two groups at the start of the experiment and administered, i.p., either 0.35 mg of NP16 or PBS with 5% Tween-80 as a control, twice per day, starting on d-1 to d 2 (a total of eight doses for each). Intraperitoneal challenge with 4×10^8 CFUs of early stationary phases S. aureus COL was performed on d 0. The mice were sacrificed on d 3 for enumeration of bacterial CFUs in liver and spleen homogenates.

Data set [8] deals with S. aureus COL. Nature of the data set: Hydrogen peroxide susceptibility assay. As to conditions: S. aureus COL grown with NP16 (40 μM); 440 mM H2O2, 1 hr. It counts as cell-based, Staphylococcus aureus. As to the method: as §1
Data set [9] relates to clinical isolate S. aureus strain AE052. Nature of the data set: Murine intraperitoneal infection model, kidney CFU. It counts as in vivo, Staphylococcus aureus. The protocol: as §2
For the clinical isolate S. aureus strain AE052, all operations were similar to those used for the COL strain, except 10^8 CFUs of early stationary phase bacteria were used in the infection model, and kidneys were collected for monitoring bacterial loads. Statistics were performed using the Student's t-test (GraphPad Prism).

For data set [10], the system named is MDCK cells. Kind of data set: Cytotoxic activity on MDCK cells. It counts as cell-based.

Take `O=C(/C=C/c1ccccc1Br)Nc1ccc(S(=O)(=O)N2CCCCC2)cc1` [NP16-XL-016, 3-(6-bromophenyl)-N-[4-(1-piperidine-1-sulfonyl)phenyl] acrylamide]: in data set [1], the “bacteria count across major organs” value was “statistically significant reduction”. Moreover, in data set [2] (oral 30 mg/kg twice a day), the “wound healing compared with 2% Mupirocin and Linezolid” value was “statistically significant improvement”. For the same molecule, in data set [2] (oral BID for 7 days, FIG. 11B), the “visual wound healing (observed size of the closure) among the three groups” value was “best visual wound healing”. The “solubility in two biorelevant media relative to IM032-C1” value in data set [3] (pH 2 and pH 7.4, fold higher than IM032-C1) is > 20 ×. The “bactericidal effect (reduction in optical density)” value in data set [4] is “not observed”.

In the case of `O=C(/C=C/c1ccccc1Cl)Nc1ccc(S(=O)(=O)N2CCCCC2)cc1` [IM032-Cl, 3-(6-chlorophenyl)-N-[4-(1-piperidine-1-sulfonyl)phenyl] acrylamide], the “Solubility in pH 2 (0.1N HCl + 0.1% Tween 80) - simulating human stomach” value in data set [3] (pH 2) was “<LOQ”.

With `O=C(/C=C/c1ccccc1)Nc1ccc(S(=O)(=O)N2CCCC2)cc1` [NP16, 3-phenyl-N-[4-(1-pyrrolidinyl-sulfonyl)phenyl]acrylamide], the “susceptibility to killing by neutrophils” value in [5] is recorded as “increased susceptibility”. Further, the “susceptibility to hydrogen peroxide killing irrespective of treatment” value in data set [6] is recorded as “similar”. In data set [7], the “bacterial counts in the livers and spleens versus control group” value is “significantly lower”. Further, the “susceptibility to killing by hydrogen peroxide” value in data set [8] is given as “increased susceptibility”. The “mice with kidney bacterial counts below the detection threshold” value in [9] (AE052 infection, n=10, control group 2 of 10) was 6 of 10. In addition, the “bacterial counts in the kidneys versus control group” value in data set [9] (mice infected with AE052, 0.35 mg twice per day, P<0.001) was “significantly lower”. In addition, in data set [10], the “effect on the growth of MDCK cells (cytotoxic activity)” value is given as “no effect”.

(Values after patent publication US20250228841A1, “COMPOSITIONS AFFECTING PIGMENT PRODUCTION AND METHODS FOR TREATMENT OF BACTERIAL DISEASES” (Aptorum Therapeutics Limited, priority 2024, published 2025).)
